Assay [1] deals with T1, Replicase polyprotein 1ab (Severe acute respiratory syndrome-related coronavirus, UniProt P0C6X7). As to the kind of experiment: Inhibition of ATPase activity of SARS coronavirus helicase assessed as phosphate release by malachite green assay.
Assay [2] has as its target T1, Replicase polyprotein 1ab. As to the kind of experiment: Inhibition of SARS coronavirus helicase assessed as duplex-DNA unwinding by FRET based assay.

The structures appear in SMILES notation.

Broadly, the IC50 is the midpoint of a concentration-inhibition curve.

`O=c1c(O)c(-c2ccc(O)c(O)c2)oc2cc(OCc3ccc(Cl)cc3)cc(O)c12`: the IC50 amounted to 20.9 µM in assay [1] and 4.1 µM in assay [2].
On to `N#Cc1cccc(COc2cc(O)c3c(=O)c(O)c(-c4ccc5c(c4)OCO5)oc3c2)c1`, for which the IC50 in assay [1] turned out to be 42.9 µM; in assay [2], 8.1 µM.
On to `N#Cc1cccc(COc2cc(O)c3c(=O)c(O)c(-c4ccc(O)c(O)c4)oc3c2)c1`, for which the IC50 came out at 25.4 µM in assay [1] and 2.7 µM in assay [2].
On to `O=c1c(O)c(-c2ccc3c(c2)OCO3)oc2cc(OCc3ccc(Cl)cc3)cc(O)c12`, for which the IC50 in assay [1] is greater than 50 µM; in assay [2] it was 9.3 µM.
Take `O=c1cc(CNCc2ccc(Cl)cc2)oc2ccc(O)c(O)c12`: the IC50 in assay [1] and in assay [2] was greater than 50 µM throughout.
As to `O=c1c(O)c(-c2ccc(O)c(O)c2)oc2cc(OCc3cccc(Cl)c3)cc(O)c12`, the IC50 in assay [1] was greater than 50 µM; in assay [2] it was 5.2 µM.
With `O=c1cc(CNCc2cccc(Cl)c2)oc2ccc(O)c(O)c12`, the IC50 in assay [1] and in assay [2] was greater than 50 µM in each case.
Turning to `O=c1c(O)c(-c2ccc3c(c2)OCO3)oc2cc(O)cc(O)c12`, the IC50 in assay [1] and in assay [2] was greater than 50 µM throughout.
Regarding `N#Cc1cccc(CNCc2cc(=O)c3c(O)c(O)ccc3o2)c1`, the IC50 in assay [1] and in assay [2] was greater than 50 µM throughout.
Consider `O=c1c(O)c(-c2ccc3c(c2)OCO3)oc2cc(OCc3cccc(Cl)c3)cc(O)c12`, for which the IC50 is greater than 50 µM in assay [1] and 15.4 µM in assay [2].

The values are drawn from ChEMBL document CHEMBL1153502, “Investigation of the pharmacophore space of Severe Acute Respiratory Syndrome coronavirus (SARS-CoV) NTPase/helicase by dihydroxychromone derivatives” (Bioorg Med Chem Lett, 2009).
